In patent US20070219272A1, “Novel method and compositions for treatment of tinnitus” (priority 2006, published 2007):

How the values were obtained:
[1] = test system: patients with Ménière's disease; test: Randomized, double blind, placebo-controlled cross-over clinical trial: tinnitus loudness after intratympanic injection; format: in vivo, human; settings: for Effect on tinnitus loudness: intratympanic injection; for Reduction of tinnitus loudness in decibels, Day 5: Day 5 after initiation; for Reduction of tinnitus loudness in decibels, Day 5 / Reduction of tinnitus loudness in decibels, Day 15 / Reduction of tinnitus loudness in decibels, Day 29: intratympanic once daily for 3 days, vs placebo, baseline-corrected, mean ± SEM, lithium salt 450 μg/ml, isopropyl ester 50 μg/ml; for Reduction of tinnitus loudness in decibels, Day 15: Day 15 after initiation; for Reduction of tinnitus loudness in decibels, Day 29: Day 29 after initiation
Description: The invention is exemplified by the following non-limiting example based on a recently performed clinical trial: Patients suffering from unilateral Ménière's disease were enrolled in a randomized, double blind, placebo-controlled clinical trial. The study followed a cross-over protocol. The patients received an intratympanic injection (injection into the middle ear cavity) of latanoprost lithium salt or placebo once daily during the three first days of each treatment period. The effect on hearing and tinnitus loudness was measured on Days 5, 15 and 29. Thereafter there was a treatment-free cross-over period of 2 months. After the cross-over period the patient entered the second treatment period and latanoprost lithium salt or placebo was again administered by intratympanic injection once daily during the three first days, and the same measurements of hearing and tinnitus were repeated. Latanoprost lithium salt was tested at 50 μg/ml, 150 μg/ml and 450 μg/ml concentration, and in addition one group of patients received latanoprost (isopropyl ester) at 50 μg/ml concentration according to the same cross-over study protocol.

Lipophilicity comparison = format: physicochemical; settings: ratio isopropyl ester / lithium salt
Description: Although the concentration of latanoprost lithium salt was 9 times higher than the concentration of latanoprost (isopropyl ester) we believe that the main additional effect (compared with latanoprost) is based on the lithium salt because the lipophilicity of latanoprost (isopropyl ester) is more than 1000 times higher than the lipophilicity of the latanoprost lithium salt. Consequently the ester can be expected to traverse biological membranes such as the round window membrane much better than the water-soluble salt. […] The concentration of 450 μg/ml of latanoprost lithium salt corresponds to approximately 1 mM lithium, i.e. a concentration within the therapeutic range of lithium. The lower concentrations 150 μg/ml and 50 μg/ml of latanoprost lithium salt had no effect which can be anticipated if the effect on tinnitus loudness at least partly is based on the pharmacological effect of lithium since the two lower concentrations are below the therapeutic concentration range of lithium.

[2] = test system: patients suffering from Ménière's disease; settings: cited from earlier work
[3] = man; lower ineffective, above 1.5 mM side effects may arise; cited from earlier work

Lipophilicity relative to latanoprost lithium salt (Lipophilicity comparison) | Structure (SMILES) | Effect on tinnitus loudness ([1]; 50 μg/ml) | Effect on tinnitus loudness ([1]; 150 μg/ml) | Reduction of tinnitus loudness in decibels, Day 5 [1] [decibels] | Reduction of tinnitus loudness in decibels, Day 15 [1] [decibels] | Reduction of tinnitus loudness in decibels, Day 29 [1] [decibels] | Effect on hearing [2] | Effect on vertigo [2] | Effect on tinnitus ([2]; intratympanic injection) | Therapeutic plasma concentration [3] [mM]
 | O=C([O-])CCC/C=C\C[C@@H]1[C@@H](CC[C@@H](O)CCc2ccccc2)[C@H](O)C[C@@H]1O.[Li+] [Latanoprost acid lithium salt, latanoprost acid lithium salt] | no effect | no effect | −10.8 ± 3.5 | −15.4 ± 6.4 | −10.5 ± 3.9 |  |  |  | 
more than 1000 times | CC(C)OC(=O)CCC/C=C\C[C@@H]1[C@@H](CC[C@@H](O)CCc2ccccc2)[C@H](O)C[C@@H]1O [Latanoprost isopropyl ester, latanoprost] |  |  | −5.5 ± 2.7 | −9.5 ± 5.8 | −9.6 ± 4.6 | improved hearing | reduced vertigo | may reduce tinnitus | 
 | [Li] [Lithium, lithium] |  |  |  |  |  |  |  |  | 0.5 to 1.5
